Measured values published in patent publication US20210330693A1, “HEPARANASE INHIBITORS AND THEIR USE AS ANTI-CANCER COMPOUNDS” (Wayne State University, priority 2018, published 2021).

Experiments:
[1] = system: 4T1 mammary carcinoma cells; experiment: 4T1 experimental metastasis assay; format: in vivo, BALB/c mice; details: IVIS imaging day 7; glycopolymer 100 μg/mouse i.p. 20 min before and together with the cells
Protocol: 4T1 Metastasis Assay. Luciferase-labeled 4T1 mammary carcinoma cells (1×10^5/mouse) were injected i.v. (n=6 mice/group) with vehicle alone (control, PBS), with positive control (heparin), or with GlcNS(6S)α((1,4)GlcA glycopolymer (DP=12, 100 μg/mouse) into BALB/c mice (i.p) 20 min prior to cell inoculation and also together with the cells. IVIS bioluminescent imaging was performed on day 7 after cell inoculation. For IVIS imaging, mice were injected intraperitoneally with D-luciferin substrate at 150 mg/kg and anesthetized with continuous exposure to isoflurane (EZAnesthesia, Palmer, Pa.). The experiment was repeated 3 times with similar results.
4T1 Metastasis Assay (Menhofer, et al., PLOS ONE 2014, 9, el 12542). Luciferase-labeled 4T1 breast carcinoma cells (1×10^5/mouse) were injected i.v (n=6 mice/group) with vehicle alone (control, PBS), with positive control (heparin), or with GlcNS(6S)α(1,4)GlcA glycopolymer (DP=12, 100 μg/mouse) into BALB/c mice (i.p) 20 min prior to cell inoculation and also together with the cells. IVIS bioluminescent imaging was performed on day 7 after cell inoculation. […] Light emitted from the bioluminescent cells is detected by the IVIS camera system with images quantified for tumor burden using a log-scale color range set at 5×10^4 to 1×10^7 and measurement of total photon counts per second (PPS) using Living Image software (Xenogen). […]

[2] = target: T1, FGF-1 (Homo sapiens, UniProt P05230); experiment: Solution-based competitive BLI assay, FGF-1; format: binding; details: competition with immobilized biotin-heparin (18 kDa), 25° C., read-out: dissociation constant (apparent Kd) to FGF-1
T1 construct: purchased R&D Systems
Protocol: (§1) Biolayer Interferometry Cross-Bioactivity Assay. BLI assays were performed on an Octet Red Instrument (fortéBIO) at 25° C. Immobilization and binding analysis were carried out at 1000 rpm using HBS-EP buffer.
(§2) Biolayer Interferometry (BLI) Assay. BLI assays were performed on an Octet Red Instrument (fortéBIO) at 25° C. Immobilization and binding analysis were carried out at 1000 rpm using HBS-EP buffer [10 mM HEPES, pH 7.4, 150 mM NaCl, 3.0 mM EDTA, and 0.005% (v/v) surfactant tween20]. A solution affinity assay, used to determine affinities of ligands by SPR analysis, was adopted to BLI (Cochran et al., Glycoconjugate J. 2009, 26, 577-587.). In this method, protein is mixed with various concentrations of ligand (glycopolymer C5A or heparin, 18 kDa). Free protein in this equilibrium mixture is tested for binding against immobilized heparin (all proteins are carrier-free and purchased from R&D Systems). Heparin-biotin (Creative PEGworks, 18 kDa, 1 biotin per HP polymer), 5 μg/mL was immobilized on to streptavidin biosensors (fortéBio) for 5 min. Binding experiments were carried out under conditions of mass transport. Binding was fitted to equation 1 (as taught in reference Chai, et al. Anal. Biochem. 2009, 395, 263-264.) using Graphpad Prism. BLI response was used in place of F and ligand (heparin/glycopolymer C5A) concentration was used in place of [metal]. […]

[3] = target: T2, FGF-2 (Homo sapiens, UniProt P09038); experiment: Solution-based competitive BLI assay, FGF-2; format: binding; details: competition with immobilized biotin-heparin (18 kDa), 25° C., read-out: dissociation constant (apparent Kd) to FGF-2
T2 construct: purchased R&D Systems
Protocol: as §1, §2

[4] = target: T3, VEGF (Homo sapiens, UniProt P15692); experiment: Solution-based competitive BLI assay, VEGF; format: binding; details: competition with immobilized biotin-heparin (18 kDa), 25° C., read-out: dissociation constant (apparent Kd) to VEGF
T3 construct: purchased R&D Systems
T3 sequence (P15692 27-191 isoform P15692-4): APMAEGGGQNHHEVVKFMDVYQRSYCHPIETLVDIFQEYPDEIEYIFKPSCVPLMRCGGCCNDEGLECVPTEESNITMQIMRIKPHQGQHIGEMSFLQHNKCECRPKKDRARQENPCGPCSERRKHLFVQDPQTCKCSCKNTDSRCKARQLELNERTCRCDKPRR
Protocol: as §1, §2

[5] = target: T4, platelet factor-4 (PF4) (Homo sapiens, UniProt P02776); experiment: Solution-based competitive BLI assay, PF4; format: binding; details: competition with immobilized biotin-heparin (18 kDa), 25° C., read-out: dissociation constant (apparent Kd) to PF4
T4 construct: purchased R&D Systems
T4 sequence (P02776 32-101): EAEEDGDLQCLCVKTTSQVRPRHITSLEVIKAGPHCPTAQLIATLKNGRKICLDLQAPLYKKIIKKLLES
Protocol: as §1, §2

[6] = target: T5, P-selectin (Homo sapiens, UniProt P16109); experiment: Solution-based competitive BLI assay, P-selectin; format: binding; details: HBS-EP buffer with 2 mM CaCl2, 2 mM MgCl2 and 0.5 mg/mL BSA
T5 construct: purchased R&D Systems
T5 sequence (P16109 42-830): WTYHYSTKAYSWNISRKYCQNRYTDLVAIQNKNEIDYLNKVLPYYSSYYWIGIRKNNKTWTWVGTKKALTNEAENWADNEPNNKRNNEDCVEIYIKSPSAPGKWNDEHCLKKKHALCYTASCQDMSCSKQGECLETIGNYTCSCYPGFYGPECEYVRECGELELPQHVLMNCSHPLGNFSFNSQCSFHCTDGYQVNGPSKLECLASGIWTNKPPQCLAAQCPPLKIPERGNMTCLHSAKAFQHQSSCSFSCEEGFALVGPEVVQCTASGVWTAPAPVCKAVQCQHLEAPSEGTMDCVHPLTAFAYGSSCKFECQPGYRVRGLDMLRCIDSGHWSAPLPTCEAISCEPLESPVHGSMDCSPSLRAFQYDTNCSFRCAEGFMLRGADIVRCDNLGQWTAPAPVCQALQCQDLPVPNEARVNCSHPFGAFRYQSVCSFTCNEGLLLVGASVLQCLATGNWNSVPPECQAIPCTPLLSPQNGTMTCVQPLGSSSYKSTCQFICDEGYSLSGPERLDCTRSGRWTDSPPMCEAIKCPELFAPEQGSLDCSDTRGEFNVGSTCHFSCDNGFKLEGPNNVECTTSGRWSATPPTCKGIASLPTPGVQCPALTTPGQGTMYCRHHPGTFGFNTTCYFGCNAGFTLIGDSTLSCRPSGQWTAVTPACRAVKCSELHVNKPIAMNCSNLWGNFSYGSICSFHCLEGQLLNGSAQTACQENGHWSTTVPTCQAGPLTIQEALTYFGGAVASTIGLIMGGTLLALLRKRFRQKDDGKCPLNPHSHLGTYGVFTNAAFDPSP
Protocol: as §1, §2

T2 sequence (P09038 143-288, species assumed): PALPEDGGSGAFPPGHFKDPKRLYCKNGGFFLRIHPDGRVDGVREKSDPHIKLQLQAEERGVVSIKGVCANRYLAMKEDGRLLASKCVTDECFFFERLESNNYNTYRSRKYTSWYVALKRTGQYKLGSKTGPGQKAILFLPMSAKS
T1 sequence (P05230 whole entry, species assumed): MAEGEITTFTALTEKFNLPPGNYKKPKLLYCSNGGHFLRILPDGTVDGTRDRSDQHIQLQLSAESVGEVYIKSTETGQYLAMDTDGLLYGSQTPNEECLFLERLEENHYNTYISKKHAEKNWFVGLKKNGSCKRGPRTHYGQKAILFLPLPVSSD

Substance	antimetastatic effect, lung metastasis of 4T1 cells [1]	Kd [2] [nM]	Kd [3] [nM]	Kd [4] [nM]	Kd [5] [nM]	Kd [6] [nM]
Roneparstat	effect was similar	–	–	–	–	–
heparin [reference compound]	reduced the size of the metastasized lung tumor by half	4.6 ± 3.3	0.15 ± 0.11	4.91 ± 1.55	0.31 ± 0.028	125 ± 152
